The values that follow come from patent US9314026B2, “Heterocyclylpyri(mi)dinylpyrazole” (Bayer Intellectual Property GmbH, priority 2011, dated 2016).

The test system of one data set is Pyricularia oryzae. The experiment in a line: whole plant or invertebrate. Particulars: 168 h, read-out: efficacy. Type of data set: in vivo.
The next data set has as its system Venturia inaequalis. Kind of data set: Venturia test (apples)/preventive. Type of data set: in vivo. Particulars: 100 ppm of active ingredient, preventive, evaluated 10 days after inoculation. On the procedure: (§1) Venturia Test (Apples)/Preventive Solvent: 24.5 parts by weight of acetone • 24.5 parts by weight of dimethylacetamide Emulsifier: 1 part by weight of alkylaryl polyglycol ether To produce a suitable preparation of active compound, 1 part by weight of active compound is mixed with the stated amounts of solvent and emulsifier, and the concentrate is diluted with water to the desired concentration. To test for preventive activity, young plants are sprayed with the preparation of active compound at the stated rate of application.

The next data set deals with Fusarium graminearum. The experiment in a line: whole plant or invertebrate. In kind it is in vivo. To be noted: in Hordeum vulgare, 120 h, read-out: efficacy.
The subject of the next data set is Alternaria solani. The experiment in a line: Alternaria test (tomato)/preventive. In kind it is in vivo. Particulars: 168 h, 500 ppm of active ingredient, preventive, evaluated 7 days after inoculation, read-out: efficacy. On the procedure: Alternaria Test (Tomato)/Preventive Solvent: 49 parts by weight of N,N-Dimethylformamide Emulsifier: 1 part by weight of Alkylarylpolyglycolether To produce a suitable preparation of active compound, 1 part by weight of active compound is mixed with the stated amounts of solvent and emulsifier, and the concentrate is diluted with water to the desired concentration. To test for preventive activity, young plants are sprayed with the preparation of active compound at the stated rate of application. One day after this treatment, the plants are inoculated with an aqueous spore suspension of Alternaria solani. […] Then the plants are placed in an incubation cabinet at approximately 20° C. and a relative atmospheric humidity of 96%.

In the next data set the test system is Botrytis cinerea. Kind of data set: Botrytis test (beans)/preventive. In kind it is in vivo. Particulars: 48 h, 100 ppm of active ingredient, preventive, size of lesions evaluated 2 days after inoculation, read-out: efficacy. On the procedure:
as §1, with “Botrytis” for “Venturia”, “(Beans)/Preventive” for “(Apples)/Preventive”, “compound. After” for “compound at”, “spray coating has dried on, 2 small pieces” for “stated rate”, “agar covered with growth of Botrytis cinerea are placed on each leaf.” for “application.”

A further data set concerns Leptosphaeria nodorum. Kind of data set: Leptosphaeria test (wheat)/preventive. In kind it is in vivo. To be noted: Parastagonospora nodorum, 500 ppm of active ingredient, preventive, evaluated 7-9 days after inoculation, read-out: efficacy. As to the method:
(§2) Leptosphaeria Test (Wheat)/Preventive Solvent: 49 parts by weight of N,N-Dimethylformamide Emulsifier: 1 part by weight of Alkylarylpolyglycolether To produce a suitable preparation of active compound, 1 part by weight of active compound is mixed with the stated amounts of solvent and emulsifier, and the concentrate is diluted with water to the desired concentration. To test for preventive activity, young plants are sprayed with a preparation of active compound at the stated rate of application. One day after this treatment, the plants are inoculated with an aqueous spore suspension of Leptosphaeria nodorum.

Data set [1] is described as follows: determination of the log P values by HPLC on a reverse phase column (C18), EEC-Directive 79/831 Annex V.A8. In kind it is physicochemical. As to the method:
Method A Note on the determination of the log P values and mass detection: The stated log P values were determined in accordance with EEC-Directive 79/831 Annex V.A8 by HPLC (High Performance Liquid Chromatography) on a reverse phase column (C18). […] The mass detection was effected with an […] system. Method B Note on the determination of the log P values and mass detection: The stated log P values were determined in accordance with EEC-Directive 79/831 Annex V.A8 by HPLC (High Performance Liquid Chromatography) on a reverse phase column (C18). […] The mass detection was effected with the Micronass ZQ2000 mass detector from Waters. Method C Note on the determination of the log P values and mass detection: The stated log P values were determined in accordance with EEC-Directive 79/831 Annex V.A8 by UPLC (Ultra Performance Liquid Chromatography) on a reverse phase column (C18). […] The mass detection was effected with the LCT Premier or SQD mass detector from Waters.

In the next data set the test system is Phytophthora infestans. The experiment in a line: whole plant or invertebrate. In kind it is in vivo. Particulars: 72 h, read-out: efficacy.
Another data set relates to Sphaerotheca fuliginea. The experiment in a line: Sphaerotheca test (cucumber)/preventive. Particulars: Podosphaera fuliginea, 168 h, 500 ppm of active ingredient, preventive, evaluated 7 days after inoculation, 0% = untreated control, 100% = no disease, read-out: efficacy. Type of data set: in vivo. As to the method:
as §2, with “Sphaerotheca Test (Cucumber)/Preventive” for “Leptosphaeria Test (Wheat)/Preventive”, “Sphaerotheca Test (Cucumber)/Preventive Solvent: 49” for “Leptosphaeria Test (Wheat)/Preventive Solvent: 49”, “sprayed with the preparation of” for “sprayed with a preparation of”, “suspension of Sphaerotheca fuliginea.” for “suspension of Leptosphaeria nodorum.”

In data set [2] the test system is Fusarium nivale (var. majus). The experiment in a line: Fusarium nivale (var. majus)-test (wheat)/preventive. Type of data set: in vivo. Particulars: Microdochium nivale, 120 h, 500 ppm of active ingredient, preventive, evaluated 5 days after inoculation, read-out: efficacy. As to the method: (§3) Fusarium nivale (Var. Majus)-Test (Wheat)/Preventive Solvent: 49 parts by weight of n,n-dimethylacetamid Emulsifier: 1 part by weight of alkylaryl polyglycol ether To produce a suitable preparation of active compound, 1 part by weight of active compound or active compound combination is mixed with the stated amounts of solvent and emulsifier, and the concentrate is diluted with water to the desired concentration. To test for preventive activity, young plants are sprayed with the preparation of active compound or active compound combination at the stated rate of application. After the spray coating has been dried, the plants are slightly injured by using a sandblast and afterwards they are sprayed with a conidia suspension of Fusarium nivale (var. majus).

A further data set relates to Septoria tritici. Kind of data set: Septoria tritici-test (wheat)/preventive. Particulars: 500 ppm of active ingredient, preventive, evaluated 21 days after inoculation. Type of data set: in vivo. On the procedure:
as §3, with “Septoria tritici-Test” for “Fusarium nivale (Var. Majus)-Test”, “are” for “are slightly injured by using a sandblast and afterwards they are”, “spore” for “conidia”, “Septoria tritici.” for “Fusarium nivale (var. majus).”

Another data set concerns Puccinia recondita. Kind of data set: Puccinia test (wheat)/preventive. In kind it is in vivo. Particulars: 500 ppm of active ingredient, preventive, evaluated 7-9 days after inoculation, read-out: efficacy. As to the method:
as §2, with “Puccinia Test (Wheat)/Preventive” for “Leptosphaeria Test (Wheat)/Preventive”, “sprayed with the preparation of” for “sprayed with a preparation of”, “suspension of Puccinia recondita.” for “suspension of Leptosphaeria nodorum.”

The subject of the next data set is Pyrenophora teres. Kind of data set: Pyrenophora test (barley)/preventive. To be noted: 500 ppm of active ingredient, preventive, evaluated 7-9 days after inoculation, read-out: efficacy. Type of data set: in vivo. As to the method: as §2, with “Pyrenophora Test (Barley)/Preventive” for “Leptosphaeria Test (Wheat)/Preventive”, “Pyrenophora Test (Barley)/Preventive Solvent: 49” for “Leptosphaeria Test (Wheat)/Preventive Solvent: 49”, “sprayed with the preparation of” for “sprayed with a preparation of”, “suspension of Pyrenophora teres.” for “suspension of Leptosphaeria nodorum.”

In general, chromatographic logP refers to lipophilicity estimated from chromatographic retention. For `CC(=O)N(C(C)=O)c1cc(-c2c(-c3ccccc3)nn3c2CCCC3)ccn1` [Example 2, N-acetyl-N-[4-(2-phenyl-4,5,6,7-tetrahydropyrazolo[1,5-a]pyridin-3-yl)pyridin-2-yl]acetamide], the pest or weed control at 500 ppm in the data set with Pyricularia oryzae amounted to 70%; with Fusarium graminearum it was 100%; in the data set with Alternaria solani it was 100%; in the data set with Leptosphaeria nodorum, 95%; with Sphaerotheca fuliginea it was 96%; in data set [2], 100%. Also, the pest or weed control at 500 ppm with Puccinia recondita and with Pyrenophora teres was 100% throughout. Moreover, the efficacy in the data set with Venturia inaequalis is reported as 71%; with Septoria tritici, 100%. Also, the values for the pest or weed control at 100 ppm in the data set on Botrytis cinerea and in the data set with Phytophthora infestans were 87% and 95%, respectively. The same compound came in with a chromatographic logP in [1] of 2.22.

`CCC(=O)N(C(=O)C(C)C)c1cc(-c2c(-c3ccc(F)cc3)nn3c2CCOC3C)ccn1` (stereo not drawn) [Example 3, N-{4-[2-(4-fluorophenyl)-7-methyl-4,5-dihydropyrazolo[1,5-c][1,3]oxazin-3-yl]pyridin-2-yl}-2-methyl-N-propionylpropanamide]: the pest or weed control at 500 ppm with Pyricularia oryzae was determined as 90%; in the data set on Fusarium graminearum, 89%; in the data set on Alternaria solani it was 90%; with Leptosphaeria nodorum, 90%; in the data set on Sphaerotheca fuliginea, 95%; in data set [2], 100%. For the same compound, the pest or weed control at 500 ppm amounted to 95% in the data set with Puccinia recondita and 100% in the data set with Pyrenophora teres. Besides, the efficacy in the data set on Venturia inaequalis is 95%; with Septoria tritici it was 100%. Also, the pest or weed control at 100 ppm is 88% with Botrytis cinerea and 91% in the data set with Phytophthora infestans. For the same compound, in data set [1], the chromatographic logP amounted to 3.83.

Consider `CC(=O)N(C(C)=O)c1cc(-c2c(-c3ccsc3)nn3c2CCCC3)ccn1` [Example 4, N-acetyl-N-{4-[2-(3-thienyl)-4,5,6,7-tetrahydropyrazolo[1,5-a]pyridin-3-yl]pyridin-2-yl}acetamide], for which the pest or weed control at 500 ppm in the data set on Pyricularia oryzae came to 95%; in the data set with Alternaria solani it was 90%; in the data set with Leptosphaeria nodorum, 95%; in the data set with Pyrenophora teres it was 95%. In addition, the efficacy in the data set on Venturia inaequalis came to 95%. In addition, the pest or weed control at 100 ppm in the data set on Botrytis cinerea and with Phytophthora infestans was 95% each time. The same compound returned a chromatographic logP in data set [1] of 2.18.

For `CC(=O)N(C(C)=O)c1cc(-c2c(-c3cccs3)nn3c2CCCC3)ccn1` [Example 8, N-acetyl-N-{4-[2-(2-thienyl)-4,5,6,7-tetrahydropyrazolo[1,5-a]pyridin-3-yl]pyridin-2-yl}acetamide], the pest or weed control at 500 ppm stood at 95% in the data set on Pyricularia oryzae; 88% in the data set with Fusarium graminearum; 89% in the data set on Alternaria solani; 89% with Leptosphaeria nodorum; 95% with Sphaerotheca fuliginea; 92% in data set [2]. Also, the pest or weed control at 500 ppm in the data set with Puccinia recondita worked out at 89%; with Pyrenophora teres it was 100%. The compound further yielded a chromatographic logP in data set [1] of 2.18. In the data set on Phytophthora infestans, the pest or weed control at 100 ppm turned out to be 83%.

`CC(=O)N(C(C)=O)c1cc(-c2c(-c3ccc(F)cc3)nn3c2CCOC3C)ccn1` (stereo not drawn) [Example 10, N-acetyl-N-{4-[2-(4-fluorophenyl)-7-methyl-4,5-dihydropyrazolo[1,5-c][1,3]oxazin-3-yl]pyridin-2-yl}acetamide]: the pest or weed control at 500 ppm amounted to 94% with Fusarium graminearum; 90% with Alternaria solani; 90% with Leptosphaeria nodorum; 95% in the data set on Sphaerotheca fuliginea; 100% in data set [2]; 95% in the data set on Puccinia recondita. In addition, in the data set on Pyrenophora teres, the pest or weed control at 500 ppm was 95%. The same compound displayed a chromatographic logP in [1] of 2.56. In the data set on Septoria tritici, the efficacy is given as 80%.

In the case of `O=C(C1CC1)N(C(=O)C1CC1)c1cc(-c2c(-c3ccc(F)cc3)nn3c2CCC3)ccn1` [Example 12, N-(cyclopropylcarbonyl)-N-{4-[2-(4-fluorophenyl)-5,6-dihydro-4H-pyrrolo[1,2-b]pyrazol-3-yl]pyridin-2-yl}cyclopropanecarboxamide], the pest or weed control at 500 ppm in the data set with Pyricularia oryzae came out at 80%; in the data set on Alternaria solani, 80%; in the data set with Leptosphaeria nodorum it was 95%; with Sphaerotheca fuliginea, 100%; in the data set on Puccinia recondita, 95%; in the data set with Pyrenophora teres it was 95%. In addition, in data set [1], the chromatographic logP worked out at 2.91.
